# Results: patent publication US20070135403A1, “Substituted 2,5-diaminomethyl-1H-pyrrole compounds” (Gruenenthal GmbH, priority 2004, published 2007)
# Where a name gives a salt, the structure may show the parent alone.
# Target: T1, NA transporter (NA uptake) (Rattus norvegicus, UniProt Q63380)
# T1 construct: from tissue; host or cells: rat brain synaptosomes (P2 fraction) from hypothalamus
# Assay: Noradrenalin (NA) uptake inhibition in rat brain synaptosomes (hypothalamus)
# Type: biochemical
# Details: 10 μM inhibition
# Source text: (§1) b) Method For Determining Noradrenalin and 5-HT Uptake Inhibition
# (§2) Synaptosomes from rat brain regions are freshly isolated for in vitro studies, as described in the publication “The isolation of nerve endings from brain” by E. G. Gray and V. P. Whittaker, J. Anatomy 96, pages 79-88, 1962. The corresponding literature description is hereby introduced as a reference and is deemed to be part of the disclosure.
# (§3) The tissue (hypothalamus for the determination of noradrenalin uptake inhibition and medulla and pons for the determination of 5-HT uptake inhibition) is homogenised in ice-cooled 0.32 M sucrose (100 mg of tissue/1 ml) in a glass homogeniser with Teflon pestle using five complete up and down strokes at 840 revolutions/minute.
# (§4) The homogenate is centrifuged at 4° C. for 10 minutes at 1000 g. After subsequent centrifugation at 17000 g for 55 minutes, the synaptosomes (P2 fraction) are obtained, which are resuspended in 0.32 M glucose (0.5 ml/100 mg of original weight).
# (§5) The particular uptake is measured in a 96-well microtitre plate. The volume is 250 μl and the incubation proceeds at room temperature (approx. 20-25° C.) under an O2 atmosphere.
# (§6) The incubation time is 7.5 minutes for [^3H]—NA and 5 minutes for [^3H]-5-HT. The 96 samples are then filtered through a Unifilter GF/B® microtitre plate (Packard) and washed with […] of incubated buffer using a “Brabdel MPXRI-96T Cell-Harvester”. The Unifilter GF/B plate is dried for 1 hour at 55° C. The plate is then sealed with a Back seal® (Packard) and 35 μl of scintillation fluid are added per well (Ultima Gold®, Packard). After sealing with a top seal® (Packard) and establishing an equilibrium (around 5 hours), radioactivity is determined in a “Trilux 1450 Microbeta” (Wallac).
# (§7) The quantity of protein used in the above determination corresponds to the values known from the literature, as for example described in “Protein measurement with the folin phenol reagent”, Lowry et al., J. Biol. Chem., 193, 265-275, 1951. A detailed description of the method may additionally be found in the literature, for example in M.Ch. Frink, H.-H. Hennies, W. Engelberger, M. Haurand and B. Wilffert (1996) Arzneim.-Forsch./Drug Res. 46 (III), 11, 1029-1036. The disclosures of these two articles are hereby incorporated by reference.
# (§8) The following characteristics were determined for the NA or 5-HT transporter: • NA uptake: Km=0.32±0.11 μM • 5HT uptake: Km=0.084±0.011 μM
# T1 sequence (Q63380 1-617): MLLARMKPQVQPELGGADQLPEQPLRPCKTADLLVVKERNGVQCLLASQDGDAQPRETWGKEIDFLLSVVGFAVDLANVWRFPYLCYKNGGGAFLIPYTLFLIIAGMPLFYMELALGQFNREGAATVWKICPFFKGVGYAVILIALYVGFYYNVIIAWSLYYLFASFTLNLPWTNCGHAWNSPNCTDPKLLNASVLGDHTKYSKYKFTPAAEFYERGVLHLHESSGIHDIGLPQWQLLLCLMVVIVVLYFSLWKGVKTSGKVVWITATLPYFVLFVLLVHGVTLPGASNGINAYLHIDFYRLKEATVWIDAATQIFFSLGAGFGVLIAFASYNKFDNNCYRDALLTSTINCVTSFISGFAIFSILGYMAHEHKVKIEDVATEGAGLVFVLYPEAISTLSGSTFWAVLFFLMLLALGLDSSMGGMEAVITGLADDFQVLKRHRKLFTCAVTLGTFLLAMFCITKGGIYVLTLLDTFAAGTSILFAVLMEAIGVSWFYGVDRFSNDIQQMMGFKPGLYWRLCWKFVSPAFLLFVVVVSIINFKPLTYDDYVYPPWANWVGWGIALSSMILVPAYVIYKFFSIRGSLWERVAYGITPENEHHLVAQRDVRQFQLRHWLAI
Molecule,inhibition at 10 µM,NA uptake inhibition
4-[1-Methyl-5-(4-phenyl-piperidin-1-ylmethyl)-1H-pyrrol-2-ylmethyl]-morpholine [Example 3],–,71
"Cn1c(CN2CCCCC2)ccc1CN1CCN(c2ccccc2)CC1 [Example 4, 1-(1-Methyl-5-piperidin-1-ylmethyl-1H-pyrrol-2-ylmethyl)-4-phenyl-piperazine]",77%,–
"Cn1c(CN2CCCCCC2)ccc1CN1CCC(Cc2ccccc2)CC1 [Example 5, 1-[5-(4-Benzyl-piperidin-1-ylmethyl)-1-methyl-1H-pyrrol-2-ylmethyl]-azepane]",100%,–
"Cn1c(CN2CCOCC2)ccc1CN1CCC(Cc2ccccc2)CC1 [Example 7, 4-[5-(4-Benzyl-piperidin-1-ylmethyl)-1-methyl-1H-pyrrol-2-ylmethyl]-morpholine]",100%,–
Benzyl-methyl-[1-methyl-5-(4-phenyl-piperidin-1-ylmethyl)-1H-pyrrol-2-ylmethyl]-amine [Example 10],–,53

# The next lines start with results.
inhibition at 10 µM,Molecule,NA uptake inhibition
100%,"CN(Cc1ccccc1)Cc1ccc(CN2CCC(Cc3ccccc3)CC2)n1C [Example 6, Benzyl-[5-(4-benzyl-piperidin-1-ylmethyl)-1-methyl-1H-pyrrol-2-ylmethyl]-methyl-amine]",–
62%,"CN(Cc1ccccc1)Cc1ccc(CN2CCCCCC2)n1C [Example 8, (5-Azepan-1-ylmethyl-1-methyl-1H-pyrrol-2-ylmethyl)-benzyl-methyl-amine]",–
57%,"CC1CCCCN1Cc1ccc(CN(C)Cc2ccccc2)n1C (stereo not drawn) [Example 9, Benzyl-methyl-[1-methyl-5-(2-methyl-piperidin-1-ylmethyl)-1H-pyrrol-2-ylmethyl]-amine]",–

# Target: T2, 5-HT transporter (5-HT uptake) (Rattus norvegicus, UniProt P31652)
# T2 construct: from tissue; host or cells: rat brain synaptosomes (P2 fraction) from medulla and pons
# Assay: 5-HT uptake inhibition in rat brain synaptosomes (medulla and pons)
# Type: biochemical
# Details: 10 μM, % inhibition
# Source text: as §1, §2, §3, §4, §5, §6, §7, §8
# T2 sequence (P31652 whole entry): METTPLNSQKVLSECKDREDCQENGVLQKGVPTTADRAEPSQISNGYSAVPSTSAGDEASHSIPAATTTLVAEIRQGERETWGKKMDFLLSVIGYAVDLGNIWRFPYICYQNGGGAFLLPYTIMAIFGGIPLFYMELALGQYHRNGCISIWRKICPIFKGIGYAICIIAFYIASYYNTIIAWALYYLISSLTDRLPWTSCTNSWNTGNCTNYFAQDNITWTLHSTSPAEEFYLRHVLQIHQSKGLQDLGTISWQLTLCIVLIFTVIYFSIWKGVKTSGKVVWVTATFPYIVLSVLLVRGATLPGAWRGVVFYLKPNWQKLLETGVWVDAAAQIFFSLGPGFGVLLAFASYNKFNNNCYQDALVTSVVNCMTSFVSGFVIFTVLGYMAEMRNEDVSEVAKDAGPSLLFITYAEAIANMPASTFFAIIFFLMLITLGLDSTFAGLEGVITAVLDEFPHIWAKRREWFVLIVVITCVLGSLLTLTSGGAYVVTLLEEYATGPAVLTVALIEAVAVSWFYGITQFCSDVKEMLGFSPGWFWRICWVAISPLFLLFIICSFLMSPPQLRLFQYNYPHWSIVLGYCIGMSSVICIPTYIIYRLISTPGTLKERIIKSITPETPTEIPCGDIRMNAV
row,Molecule,5HT uptake inhibition
1,4-[1-Methyl-5-(4-phenyl-piperidin-1-ylmethyl)-1H-pyrrol-2-ylmethyl]-morpholine [Example 3],59%

# Same assay, conditions: % inhibition
row,inhibition at 10 µM,Molecule
1,72%,"CC1CCN(Cc2ccc(CN3CCCCC3)n2C)CC1 [Example 2, 1-(1-Methyl-5-piperidin-1-ylmethyl-1H-pyrrol-2-ylmethyl)-4-methylpiperidine]"
2,48%,"Cn1c(CN2CCCCC2)ccc1CN1CCN(c2ccccc2)CC1 [Example 4, 1-(1-Methyl-5-piperidin-1-ylmethyl-1H-pyrrol-2-ylmethyl)-4-phenyl-piperazine]"
3,64%,"Cn1c(CN2CCCCCC2)ccc1CN1CCC(Cc2ccccc2)CC1 [Example 5, 1-[5-(4-Benzyl-piperidin-1-ylmethyl)-1-methyl-1H-pyrrol-2-ylmethyl]-azepane]"
4,61%,"CN(Cc1ccccc1)Cc1ccc(CN2CCC(Cc3ccccc3)CC2)n1C [Example 6, Benzyl-[5-(4-benzyl-piperidin-1-ylmethyl)-1-methyl-1H-pyrrol-2-ylmethyl]-methyl-amine]"
5,55%,"Cn1c(CN2CCOCC2)ccc1CN1CCC(Cc2ccccc2)CC1 [Example 7, 4-[5-(4-Benzyl-piperidin-1-ylmethyl)-1-methyl-1H-pyrrol-2-ylmethyl]-morpholine]"

row,Molecule,inhibition at 10 µM
1,"CCN(CC)Cc1ccc(CN2CCCCC2)n1C [Example 1, Diethyl-(1-methyl-5-piperidin-1-ylmethyl-1H-pyrrol-2-ylmethyl)-amine dihydrochloride]",34%
